The values below come from publication PMC5419029 (Cancer research, 2017).

The target in experiment [1] is T1, OCTN1 (Homo sapiens, UniProt Q9H015).
T1 sequence (Q9H015 1-551): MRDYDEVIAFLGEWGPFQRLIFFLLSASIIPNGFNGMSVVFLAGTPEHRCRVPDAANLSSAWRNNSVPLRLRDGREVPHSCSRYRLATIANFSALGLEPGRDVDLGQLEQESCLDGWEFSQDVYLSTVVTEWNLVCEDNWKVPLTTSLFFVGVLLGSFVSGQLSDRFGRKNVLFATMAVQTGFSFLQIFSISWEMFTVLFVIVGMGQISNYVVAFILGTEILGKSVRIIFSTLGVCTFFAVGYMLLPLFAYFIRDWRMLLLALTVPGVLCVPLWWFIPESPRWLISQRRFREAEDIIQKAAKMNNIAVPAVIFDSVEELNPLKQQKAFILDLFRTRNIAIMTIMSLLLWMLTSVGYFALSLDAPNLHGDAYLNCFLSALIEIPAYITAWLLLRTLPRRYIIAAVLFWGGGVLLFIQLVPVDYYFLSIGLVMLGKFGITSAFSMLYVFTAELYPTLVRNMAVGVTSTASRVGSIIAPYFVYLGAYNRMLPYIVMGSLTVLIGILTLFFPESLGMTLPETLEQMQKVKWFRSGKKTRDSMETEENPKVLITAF
Briefly: uptake. The format is cell-based.

Experiment [2] addresses T1, OCTN1. Briefly: uptake in OCTN1-transfected HEK293 cells. Type of experiment: cell-based.
Experiment [3] addresses T1, OCTN1.

As for `Nc1nc(Cl)nc2c1ncn2[C@@H]1O[C@H](CO)[C@@H](O)[C@@H]1F` [clofarabine], the “uptake (1 μM, 5 min) in OCTN1-transfected HEK293 cells” value at OCTN1 [1] is “adenosine analogs (eg, clofarabine and fludarabine), and guanosine analogs (eg, ribavirin)”.

Regarding `C[N+](C)(C)[C@@H](Cc1c[nH]c(=S)[nH]1)C(=O)[O-]` [ergothioneine], on OCTN1 [2], the “uptake in OCTN1-transfected HEK293 cells (transport efficiency)” value came to 62 ± 8 µL/min/mg. Regarding `Nc1nc(F)nc2c1ncn2[C@@H]1O[C@H](CO)[C@@H](O)[C@@H]1O` [fludarabine], the “uptake (1 μM, 5 min) in OCTN1-transfected HEK293 cells” value on OCTN1 [1] is “adenosine analogs (eg, clofarabine and fludarabine), and guanosine analogs (eg, ribavirin)”. On the same count and under the same terms, for `NC(=O)c1ncn([C@@H]2O[C@H](CO)[C@@H](O)[C@H]2O)n1` [ribavirin] the value was “adenosine analogs (eg, clofarabine and fludarabine), and guanosine analogs (eg, ribavirin)”.

Turning to `CC[N+](CC)(CC)CC` [tetraethylammonium], the “carbon 14-labeled TEA uptake in OCTN1-transfected HEK293 cells (transport effici)” value at OCTN1 [3] worked out at 1.1 ± 0.12 µL/min/mg.
